The values that follow come from ChEMBL document CHEMBL4673395, “Discovery of PIPE-359, a Brain-Penetrant, Selective M Receptor Antagonist with Robust Efficacy in Murine MOG-EAE” (ACS Med Chem Lett, 2021).

Data set [1] addresses T1, Muscarinic acetylcholine receptor M1 (Homo sapiens, UniProt P11229).
T1 sequence (P11229 whole entry): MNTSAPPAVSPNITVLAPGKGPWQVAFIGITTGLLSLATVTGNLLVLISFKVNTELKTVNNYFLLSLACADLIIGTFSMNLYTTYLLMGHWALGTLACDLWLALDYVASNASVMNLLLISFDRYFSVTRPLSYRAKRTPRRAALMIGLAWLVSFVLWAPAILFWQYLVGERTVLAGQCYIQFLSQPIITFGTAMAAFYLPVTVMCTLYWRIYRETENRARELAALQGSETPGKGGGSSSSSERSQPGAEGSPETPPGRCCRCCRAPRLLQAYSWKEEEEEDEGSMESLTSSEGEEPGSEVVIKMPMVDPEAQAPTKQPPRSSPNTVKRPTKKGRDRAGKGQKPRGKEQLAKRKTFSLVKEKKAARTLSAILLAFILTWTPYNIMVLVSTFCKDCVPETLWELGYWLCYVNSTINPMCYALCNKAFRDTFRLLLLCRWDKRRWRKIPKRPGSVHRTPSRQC
In words: Antagonist activity at human recombinant muscarinic receptor M1 expressed in CHO-K1 cells assessed as EC80 acetylcholine-induced calcium flux incubated for 30 mins. The format is functional, cell-based. The settings on record: read-out: IC50.

Data set [2] can be described thus: Metabolic stability in rat liver microsomes assessed as parent compound remaining at 1 uM measured at 15 mins by LC-MS/MS analysis. It counts as ADME, Microsome. The conditions noted are these: read-out: Stabilty. On the technique in general: Microsomes from liver hold many membrane-bound enzymes, among them those of drug oxidation.
The subject of a further data set is Mus musculus. The experiment in a line: In vivo receptor occupancy at muscarinic M1 receptor in myelin oligodendrocyte glycoprotein (MOG)-induced experimental autoimmune encephalitis C57BL/6 mouse model assessed as decrease in occupancy at 30 mg/kg, po measured up to 8 hrs. It counts as functional, organism-based. The conditions noted are these: time hrs <=8.

Data set [3] is described as follows: Fraction unbound in rat plasma at 30 mg/kg, po measured after 24 hrs. It counts as ADME, organism-based. The conditions noted are these: in vivo.
The nature of data set [4]: Unbound fraction in rat brain at 10 mg/kg, po measured after 2 hrs by LC-MS/MS. The format is ADME, organism-based. The settings on record: in vivo.
Data set [5] in a line: Metabolic stability in mouse liver microsomes assessed as intrinsic clearance at 1 uM measured up to 60 mins by LC-MS/MS analysis. The settings on record: read-out: CLH. The format is ADME, Microsome.
Data set [6] in a line: In vivo receptor occupancy at muscarinic M1 receptor in myelin oligodendrocyte glycoprotein (MOG)-induced experimental autoimmune encephalitis C57BL/6 mouse model assessed as decrease in occupancy at 30 mg/kg, po measured after 24 hrs. More on the design: Activity: scale not given: the % may be the effect or the level left. It counts as functional.
The next data set deals with Cytochrome P450 2C9 (Homo sapiens, UniProt P11712). The experiment in a line: Inhibition of human CYP2C9 in pooled human liver microsomes using diclofenac as substrate incubated for 5 mins by LC-MS/MS. It counts as ADME.
Chain of Cytochrome P450 2C9 (P11712 whole entry): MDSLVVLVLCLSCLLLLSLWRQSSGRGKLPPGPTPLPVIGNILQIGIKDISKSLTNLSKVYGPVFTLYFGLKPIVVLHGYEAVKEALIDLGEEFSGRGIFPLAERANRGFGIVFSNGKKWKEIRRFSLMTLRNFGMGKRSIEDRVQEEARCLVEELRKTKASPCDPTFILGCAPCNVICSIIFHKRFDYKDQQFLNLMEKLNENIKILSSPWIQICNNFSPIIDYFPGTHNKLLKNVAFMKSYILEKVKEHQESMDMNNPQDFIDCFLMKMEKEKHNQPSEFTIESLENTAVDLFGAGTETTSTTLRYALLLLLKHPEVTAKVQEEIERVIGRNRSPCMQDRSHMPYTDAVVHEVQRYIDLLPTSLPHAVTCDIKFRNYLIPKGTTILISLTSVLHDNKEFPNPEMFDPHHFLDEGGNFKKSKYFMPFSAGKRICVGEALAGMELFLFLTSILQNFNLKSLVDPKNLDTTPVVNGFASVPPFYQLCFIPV
Data set [7] is described as follows: Metabolic stability in rat liver microsomes assessed as intrinsic clearance at 1 uM measured up to 60 mins by LC-MS/MS analysis. It counts as ADME, Microsome. The settings on record: read-out: CLH.
Another data set has as its target Cytochrome P450 3A4 (Homo sapiens, UniProt P08684). In words: Inhibition of human CYP3A4 in pooled human liver microsomes using midazolam as substrate incubated for 5 mins by LC-MS/MS. It counts as ADME.
Data set [8] can be described thus: Drug uptake in rat brain at 10 mg/kg, po measured after 2 hrs by LC-MS/MS. The format is ADME, organism-based. The conditions noted are these: read-out: Drug uptake.
Data set [9] addresses T2, Muscarinic acetylcholine receptor M3 (Homo sapiens, UniProt P20309). The experiment in a line: Antagonist activity at human recombinant muscarinic receptor M3 expressed in CHO-K1 cells assessed as EC80 acetylcholine-induced calcium flux incubated for 30 mins. The format is functional, cell-based. In general terms: Calcium flux is commonly read through the fluorescence of an indicator in the cells.

A short description of data set [10]: Oral bioavailability in rat at 10 mg/kg. It counts as ADME, organism-based. The conditions noted are these: in vivo.
Data set [11] is described as follows: Fraction unbound in rat plasma at 30 mg/kg, po measured after 8 hrs. The format is ADME, organism-based. The conditions noted are these: in vivo.
Data set [12] addresses T1, Muscarinic acetylcholine receptor M1. In words: Displacement of [3H]NMS from human recombinant muscarinic receptor M1 expressed in CHO-K1 cell membranes assessed as inhibition constant incubated for 1 hr by Radioligand binding assay. (In general: In a radioligand displacement assay an active substance lowers the binding of a labelled ligand.)
Data set [13] is described as follows: Fraction unbound in rat brain at 30 mg/kg, po measured after 24 hrs. The format is ADME, organism-based. The settings on record: in vivo.
Data set [14] in a line: Clearance in rat at 2 mg/kg, iv. It counts as ADME, organism-based. The settings on record: in vivo.
Data set [15] can be described thus: AUC in rat at 2 mg/kg, iv. The format is ADME, organism-based. More on the design: dose 2 mg/kg. The conditions noted are these: in vivo.
The nature of data set [16]: Apparant permeability across apical to basolateral side in dog MDCK-MDR1 cells. The format is ADME, cell-based, Canis lupus familiaris.
Data set [17] deals with T3, Muscarinic acetylcholine receptor M2 (Homo sapiens, UniProt P08172).
T3 sequence (P08172 whole entry): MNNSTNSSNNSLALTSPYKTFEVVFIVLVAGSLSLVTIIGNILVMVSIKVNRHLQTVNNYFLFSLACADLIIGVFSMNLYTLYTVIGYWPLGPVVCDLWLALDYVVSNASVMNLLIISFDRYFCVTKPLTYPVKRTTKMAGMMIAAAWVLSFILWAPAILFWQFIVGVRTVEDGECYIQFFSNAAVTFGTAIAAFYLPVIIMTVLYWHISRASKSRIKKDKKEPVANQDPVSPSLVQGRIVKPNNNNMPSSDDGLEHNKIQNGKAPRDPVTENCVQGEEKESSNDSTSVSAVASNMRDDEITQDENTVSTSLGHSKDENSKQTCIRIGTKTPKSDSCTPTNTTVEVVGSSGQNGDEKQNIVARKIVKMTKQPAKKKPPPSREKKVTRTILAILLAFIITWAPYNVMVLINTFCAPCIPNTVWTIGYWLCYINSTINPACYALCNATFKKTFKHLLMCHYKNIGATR
The experiment in a line: Antagonist activity at human recombinant muscarinic receptor M2 expressed in CHO-K1 cells assessed as EC80 acetylcholine-induced calcium flux incubated for 30 mins. The format is functional, cell-based.

In data set [18] the target is Muscarinic acetylcholine receptor M2 (Homo sapiens, UniProt P08172). In words: Displacement of [3H]NMS from human recombinant muscarinic receptor M2 expressed in CHO-K1 cell membranes assessed as inhibition constant incubated for 1 hr by Radioligand binding assay.
Another data set deals with Cytochrome P450 2D6 (Homo sapiens, UniProt P10635). In words: Inhibition of human CYP2D6 in pooled human liver microsomes using dextromethorphan as substrate incubated for 20 mins by LC-MS/MS. It counts as ADME.
Chain of Cytochrome P450 2D6 (P10635 whole entry): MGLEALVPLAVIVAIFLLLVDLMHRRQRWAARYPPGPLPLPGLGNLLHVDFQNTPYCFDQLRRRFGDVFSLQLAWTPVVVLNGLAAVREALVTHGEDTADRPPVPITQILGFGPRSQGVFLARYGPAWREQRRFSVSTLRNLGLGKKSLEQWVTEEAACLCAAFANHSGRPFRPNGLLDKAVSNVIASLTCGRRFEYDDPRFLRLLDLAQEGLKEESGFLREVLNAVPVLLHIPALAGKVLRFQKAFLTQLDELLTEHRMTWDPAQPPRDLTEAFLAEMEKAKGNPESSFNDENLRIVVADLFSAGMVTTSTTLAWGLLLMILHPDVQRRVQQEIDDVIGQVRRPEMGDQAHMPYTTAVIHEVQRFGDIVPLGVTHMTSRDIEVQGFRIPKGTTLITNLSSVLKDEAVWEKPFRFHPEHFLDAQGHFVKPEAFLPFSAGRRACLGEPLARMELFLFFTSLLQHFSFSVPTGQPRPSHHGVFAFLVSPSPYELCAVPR
Data set [19] can be described thus: Plasma protein binding in rat assessed as unbound fraction. The format is ADME, cell-free.
Data set [20] is described as follows: Unbound clearance in rat at 10 mg/kg, po. It counts as ADME, organism-based. The conditions noted are these: in vivo.
Data set [21] can be described thus: Metabolic stability in human liver microsomes assessed as intrinsic clearance at 1 uM measured up to 60 mins by LC-MS/MS analysis. It counts as ADME, Microsome. The conditions noted are these: read-out: CLH.
The nature of data set [22]: Half life in rat at 2 mg/kg, iv. The conditions noted are these: in vivo. It counts as ADME, organism-based.
Data set [23] can be described thus: AUC in rat at 10 mg/kg, po. The settings on record: in vivo. More on the design: dose 10 mg/kg. The format is ADME, organism-based.
The nature of data set [24]: Plasma protein binding in mouse assessed as unbound fraction. It counts as ADME, cell-free.
For data set [25], the target named is T2, Muscarinic acetylcholine receptor M3. In words: Displacement of [3H]NMS from human recombinant muscarinic receptor M3 expressed in CHO-K1 cell membranes assessed as inhibition constant incubated for 1 hr by Radioligand binding assay.

Calls of active or inactive are those of the source.

T2 sequence (P20309 whole entry): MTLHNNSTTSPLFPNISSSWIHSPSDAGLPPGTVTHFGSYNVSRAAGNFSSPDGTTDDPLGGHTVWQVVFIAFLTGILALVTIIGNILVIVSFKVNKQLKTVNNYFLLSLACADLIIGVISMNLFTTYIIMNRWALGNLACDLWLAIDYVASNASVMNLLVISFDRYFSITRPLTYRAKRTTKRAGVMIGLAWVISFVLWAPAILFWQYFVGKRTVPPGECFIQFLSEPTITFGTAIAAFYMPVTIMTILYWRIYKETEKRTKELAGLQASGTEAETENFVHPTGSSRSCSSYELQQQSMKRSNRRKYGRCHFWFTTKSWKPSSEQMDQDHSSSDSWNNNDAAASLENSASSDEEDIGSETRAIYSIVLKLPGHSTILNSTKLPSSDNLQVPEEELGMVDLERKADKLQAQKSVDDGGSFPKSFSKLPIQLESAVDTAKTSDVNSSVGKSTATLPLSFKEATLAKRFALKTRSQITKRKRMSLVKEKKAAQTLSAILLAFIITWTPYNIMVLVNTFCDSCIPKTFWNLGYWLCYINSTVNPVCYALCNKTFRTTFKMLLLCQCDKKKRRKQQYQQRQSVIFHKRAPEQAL
Chain of Cytochrome P450 3A4 (P08684 whole entry): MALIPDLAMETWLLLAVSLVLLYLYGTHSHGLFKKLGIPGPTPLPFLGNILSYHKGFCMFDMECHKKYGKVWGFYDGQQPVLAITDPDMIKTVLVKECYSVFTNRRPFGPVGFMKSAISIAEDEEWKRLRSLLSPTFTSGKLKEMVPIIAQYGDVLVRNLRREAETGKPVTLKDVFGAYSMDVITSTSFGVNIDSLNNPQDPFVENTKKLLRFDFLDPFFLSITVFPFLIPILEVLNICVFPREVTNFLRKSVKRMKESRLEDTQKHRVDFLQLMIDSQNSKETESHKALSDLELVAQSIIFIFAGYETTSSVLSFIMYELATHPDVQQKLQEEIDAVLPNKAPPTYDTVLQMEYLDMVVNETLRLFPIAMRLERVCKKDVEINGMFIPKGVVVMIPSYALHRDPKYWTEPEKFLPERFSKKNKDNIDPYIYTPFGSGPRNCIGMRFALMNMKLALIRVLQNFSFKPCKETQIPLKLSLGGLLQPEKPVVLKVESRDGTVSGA

As to `Cc1ccncc1N1CCN(C(=O)CCS(=O)(=O)c2cccc3ncsc23)CC1`, the IC50 in [1] is 260 nM.

For the compound `Cc1cc(F)cnc1N1CCN(C(=O)CNCc2cccc3ncsc23)[C@@H](C)C1`, in [1], the IC50 was 3000 nM.

As to `O=C(CCS(=O)(=O)c1cccc2ncsc12)N1CCN(c2ccnc(C(F)(F)F)c2)CC1`, in data set [1], the IC50 was determined as 4800 nM.

In the case of `N#Cc1ccc(C2CCN(C(=O)CCS(=O)(=O)c3cccc4ncsc34)CC2)nc1`, the IC50 in data set [1] amounted to 19 nM.

As for `CC1CN(C(=O)CCS(=O)(=O)c2cccc3ncsc23)CCN1c1ccc(C#N)cn1` (racemic), the IC50 in data set [1] was found to be 5.8 nM.

As to `Cc1cc(F)cnc1N1CCN(C(=O)CCCc2cccc3ncccc23)CC1`, in data set [1], the IC50 came to 69 nM.

`Cc1cncc(Cl)c1N1CCN(C(=O)CCS(=O)(=O)c2cccc3ncsc23)CC1`: in data set [1], the IC50 is 8500 nM.

`O=C(CCCc1cccc2ncccc12)N1CCN(c2ccncc2F)CC1`: the IC50 in data set [1] stood at 490 nM.

Regarding `Cc1cc(F)cnc1N1CCN(C(=O)CCCc2cccc3ncsc23)[C@@H](C)C1`, in data set [1], the IC50 came out at 24 nM. The remaining at 0.25 h, 1 µM in [2] turned out to be 5.3%.

With `N#Cc1ccc(N2C3CCC2CN(C(=O)CCS(=O)(=O)c2cccc4ncsc24)C3)nc1`, in the data set with Mus musculus, the Occ result was “Active”. Moreover, the “Cp(f)” value in data set [3] came out at 2.9 nM; in data set [11], 117 nM. Also, the figures for the “Drug uptake(free)” value in [4] and in [13] were 3.4 nM and 0.12 nM, respectively. Further, the microsomal CLint at 1 µM in data set [5] was 21 µL/min/mg; in data set [7] it was 23 µL/min/mg; in data set [21], 42 µL/min/mg. For the same compound, the Activity in data set [6] amounted to 40%. The IC50 is 1.8 nM in data set [1]; more than 10000 nM against Cytochrome P450 2C9; more than 10000 nM at Cytochrome P450 3A4; 55 nM in [9] (read-out: IC50); 200 nM in data set [17] (read-out: IC50); more than 10000 nM on Cytochrome P450 2D6. Also, the concentration at 2 h in [8] came to 26 nM. Also, the bioavailability (commonly the share of a dose that reaches the circulation, judged against a reference dose that is usually intravenous) in data set [10] is 4.5%. Further, the Ki (in general, a measure of affinity in units of concentration, obtained from inhibition or displacement) in data set [12] turned out to be 0.14 nM; in data set [18], 19 nM; in data set [25] it was 0.84 nM. In addition, the clearance (as a rule, the volume of plasma or blood freed of the substance per unit of time) in data set [14] came out at 56 mL/min/kg. Also, the AUC (usually concentration integrated over time) in data set [15] came to 100 ng·h/mL; in data set [23], 21 ng·h/mL. Further, the apical-to-basolateral permeability (Papp A→B) (commonly how fast a substance crosses the layer from the apical side) in [16] turned out to be 7.7 ×10⁻⁶ cm/s. Moreover, the unbound share (fraction unbound) (usually the share of the substance not bound to proteins or other matrix) came out at 0.2 in data set [19] and 0.18 in [24]. The same compound returned a CL free in data set [20] of 273 mL/min/kg. In addition, in [22], the half-life (usually the time needed for the level to fall by half in the phase considered) is 54 min.

`Cc1ccncc1N1CCN(C(=O)CCCc2cccc3ncccc23)[C@H](C)C1`: the IC50 in data set [1] was found to be 20 nM.

Consider `Cc1cc(F)cnc1N1CCN(C(=O)CCCc2cccc3ncccc23)[C@@H](C)C1`, for which the IC50 in data set [9] (read-out: pIC50 (converted)) is 1260 nM; in data set [17] (read-out: pIC50 (converted)) it was 2000 nM. The remaining at 0.25 h, 1 µM in data set [2] amounted to 0.2%. Besides, the apical-to-basolateral permeability (Papp A→B) in data set [16] was determined as 8 ×10⁻⁶ cm/s.

Regarding `O=C(CCCc1cccc2ncccc12)N1CCN(c2ccncc2)CC1`, in [1], the IC50 was found to be 24 nM.

Turning to `Cc1cc(F)cnc1N1CCN(C(=O)CCCS(=O)(=O)c2cccc3ncsc23)[C@@H](C)C1`, in [1], the IC50 worked out at 1900 nM.

Take `N#Cc1ccc(N2C3COCC2CN(C(=O)CCS(=O)(=O)c2cccc4ncsc24)C3)nc1`: the IC50 in data set [1] was found to be 31 nM.

As to `N#Cc1ccc(C2=CCN(C(=O)CCS(=O)(=O)c3cccc4ncsc34)CC2)nc1`, in [1], the IC50 came out at 80 nM.

For `O=C(CCS(=O)(=O)c1cccc2ncsc12)N1CCN(c2ccc(Cl)cn2)CC1`, the IC50 in data set [1] amounted to 160 nM. Moreover, in data set [2], the remaining at 0.25 h, 1 µM turned out to be 31%.

On to `Cc1cc(F)cnc1N1CCN(C(=O)CCCc2cccc3nc(N)sc23)[C@@H](C)C1`, for which, in [2], the remaining at 0.25 h, 1 µM was 3.7%.

As for `Cc1cc(F)cnc1N1CCN(C(=O)CCS(=O)(=O)c2cccc3ncsc23)[C@@H](C)C1`, the IC50 in data set [1] was 71 nM. For the same compound, the remaining at 0.25 h, 1 µM in [2] stood at 9.6%.

On to `Cc1cc(F)cnc1N1CCN(C(=O)COCc2cccc3ncsc23)[C@@H](C)C1`, for which the IC50 in data set [1] came to 3600 nM.
